Patent US6777578B2, “Hydroxyphenstatin and the prodrugs thereof” (Arizona Board of Regents, priority 2000, dated 2004)
≈ marks a conversion by molar mass, not a printed value. Read-outs that look alike come from different tables or passages of the source.

Experiments:
tubulin [1] = assay: Tubulin polymerization assay; type: biochemical; conditions: read-out: Inhibition of Tubulin Polymerization (μM IC50 ± SD)
Description: (§1) The tubulin polymerization and colchicine binding assays were performed as described previously (See: […]), except that Beckman DU7400/7500 spectrophotometers equipped with “high performance” temperature controllers were used in the former assay. Unlike the manual control possible with the previously used Gilford spectrophotometers, the polymerization assays required use of programs provided by MDB analytical Associates, South Plainfield, N.J., since the Beckman instruments are microprocessor controlled. The Beckman instruments were unable to maintain 0° C., and the lower temperature in the assays fluctuated between 2 and 4° C. Temperature changes were, however, more rapid than in the Gilford instruments with the jump from the lower temperature to 30° C. taking about 20 sec. and the reverse jump about 100 sec.

tubulin [2] = assay: Colchicine binding assay; conditions: [3H]colchicine binding to tubulin
Description: as §1

KM20L2 = assay: Human cancer cell growth inhibition, colon KM20L2; type: cell-based
Description: (§2) The following measures are used to express drug activity giving the drug dose, which reduces cell growth to a specified percentage of growth:
(§3) ED50 (P388) and GI50 (HTCL) are the drug doses needed to reduce the percent growth to 50%. There is no mathematical difference between ED50 and GI50, which are both calculated using the same formula. The only difference is historical usage.
(§4) Each drug is tested at five (5) doses: 100-10-1-0.1-0.01 μg/ml. Percent Growths are calculated for each dose. The two (or three) doses with growth values above, below, (or near to) 50% growth are used to calculate the ED50/GI50 using a linear regression formula. The log of the dose is used during the regression computation. If no dose yields a growth value under 50%, the results are expressed as: ED50>(highest dose). If no dose yields a growth value higher than 50%, then ED50<(lowest dose). Similar calculations are performed for the TGI at 0% growth, and at −50% growth for the LC50.

DU-145 = assay: Human cancer cell growth inhibition, prostate DU-145; type: cell-based
Description: as §2, §3, §4

BXPC-3 = assay: Human cancer cell growth inhibition, pancreas BXPC-3; type: cell-based; conditions: Pancreas-a
Description: as §2, §3, §4

NCI 60-cell screen = assay: NCI 60-cell screen; type: cell-based; conditions: read-out: mean-panel GI50
RPMI-7951 = assay: Human cancer cell growth inhibition, melanoma RPMI-7951; type: cell-based
Description: as §2, §3, §4

NCI-H460 = assay: Human cancer cell growth inhibition, lung-NSC NCI-H460; type: cell-based
Description: as §2, §3, §4

P388 = assay: Cancer cell growth inhibition, murine P388 lymphocytic leukemia; type: cell-based
Description: as §2, §3, §4

[3] = test system: two fungal and eight bacterial strains; assay: Antibiotic screening against the whole panel; type: cell-based; conditions: for inhibition of growth of the two fungal and eight bacterial strains tested: at 100 μg/disk
Source text: (§5) The new substances were screened against the bacteria Stenotrophomonas maltophilia, Micrococcus luteus, Staphylococcus aureus, Escherichia coli, Enterobacter cloacae, Enterococcus faecalis, Streptococcus pneumoniae, Neisseria gonorrhoeae, and the fungi Candida albicans and Cryptococcus neoformans, according to established disk susceptibility testing protocols.

SF-295 = assay: Human cancer cell growth inhibition, CNS SF-295; type: cell-based
Description: as §2, §3, §4

Micrococcus luteus = assay: Disk susceptibility testing, Micrococcus luteus; type: cell-based
Source text: as §5

[4] = Solubility in distilled water; type: physicochemical; conditions: distilled water at 25° C.
Escherichia coli = assay: Disk susceptibility testing, Escherichia coli; type: cell-based
Source text: as §5

Neisseria gonorrhoeae = assay: Disk susceptibility testing, Neisseria gonorrhoeae; type: cell-based
Source text: as §5

Staphylococcus aureus = assay: Disk susceptibility testing, Staphylococcus aureus; type: cell-based
Source text: as §5

[5] = test system: Stenotrophomonas maltophilia; assay: Disk susceptibility testing, Stenotrophomonas maltophilia; type: cell-based
Source text: as §5

Cryptococcus neoformans = assay: Disk susceptibility testing, Cryptococcus neoformans; type: cell-based
Source text: as §5

Candida albicans = assay: Disk susceptibility testing, Candida albicans; type: cell-based
Source text: as §5

In the case of COc1ccc(/C=C\c2cc(OC)c(OC)c(OC)c2)c(O)c1O [Compound 3a, combretastatin A-1, reference compound], the IC50 (tubulin [1]) is reported as 1.1 ± 0.07 µM and the “% Inhibition of Colchicine Binding ± SD” value (tubulin [2]) is reported as 99.6 ± 0.7%.

COc1ccc(/C=C\c2cc(OC)c(OC)c(OC)c2)cc1OP(=O)(O)O [Compound 3c] showed an IC50 (tubulin [1]) of over 40 µM.

COc1ccc(C(=O)c2cc(OC)c(OC)c(OC)c2)c(O)c1O [Compound 6a] gave a GI50 (KM20L2; Homo sapiens, KM-20L2, read-out: GI50) of 1.2 mg/L (≈ 3.59 µM), a GI50 (DU-145; Homo sapiens, read-out: GI50) of 0.048 mg/L (≈ 0.144 µM) and a GI50 (BXPC-3; Homo sapiens, read-out: GI50) of 3.3 mg/L (≈ 9.87 µM). The IC50 (tubulin [1]) was 0.82 ± 0.2 µM, the GI50 (NCI 60-cell screen; 60 cell) was 0.167 µM and the GI50 (RPMI-7951; Homo sapiens, read-out: GI50) was 0.58 mg/L (≈ 1.73 µM). The GI50 (NCI-H460; Homo sapiens, read-out: GI50) was 0.21 mg/L (≈ 0.628 µM), the GI50 (P388; Mus musculus, read-out: GI50) was 0.315 mg/L (≈ 0.942 µM) and the “inhibition of growth of the two fungal and eight bacterial strains tested” value [3] was “none of these compounds inhibited growth”. For the same compound, the GI50 (SF-295; Homo sapiens, read-out: GI50) was 0.04 mg/L (≈ 0.12 µM), the “% Inhibition of Colchicine Binding ± SD” value (tubulin [2]) was 77 ± 4% and the melting point was 171.1 to 171.9 °C.

COCOc1c(OC)ccc(C(=O)c2cc(OC)c(OC)c(OC)c2)c1OCOC [Compound 6c, 2′,3′-Bis(methoxymethyloxy)-3,4,4′,5-tetramethoxybenzophenone] showed a GI50 (DU-145; Homo sapiens, read-out: GI50) of over 10 mg/L, a GI50 (BXPC-3; Homo sapiens, read-out: GI50) of over 10 mg/L and a GI50 (RPMI-7951; Homo sapiens, read-out: GI50) of over 10 mg/L. The GI50 (NCI-H460; Homo sapiens, read-out: GI50) was over 10 mg/L, the GI50 (P388; Mus musculus, read-out: GI50) was over 10 mg/L and the “inhibition of growth of the two fungal and eight bacterial strains tested” value [3] was “none of these compounds inhibited growth”. For the same compound, the GI50 (SF-295; Homo sapiens, read-out: GI50) was over 10 mg/L and the melting point was 70.2 to 71.7 °C.

Work on COc1cc(C(=O)c2ccc(OC)c(OP(=O)(OCc3ccccc3)OCc3ccccc3)c2OP(=O)(OCc2ccccc2)OCc2ccccc2)cc(OC)c1OC [Compound 6d, 2′,3′-O-Di-(bisbenzylphosphoryl)-hydroxyphenstatin] yielded a GI50 (DU-145) of over 10 mg/L, a GI50 (BXPC-3) of over 10 mg/L and a GI50 (RPMI-7951) of over 10 mg/L. For the same compound, the GI50 (NCI-H460) was over 10 mg/L, the GI50 (P388) was 2.55 mg/L (≈ 2.98 µM) and the “Minimum inhibitory Concentration (μg/disk)” value (Micrococcus luteus) was 50-100 μg/disk. For the same compound, the GI50 (SF-295) was over 10 mg/L.

For COc1cc(C(=O)c2ccc(OC)c(OP(=O)([O-])[O-])c2OP(=O)([O-])[O-])cc(OC)c1OC.[Na+].[Na+].[Na+].[Na+] [Compound 6e, Sodium Hydroxyphenstatin Diphosphate], the GI50 (KM20L2) was 5.9 mg/L, the GI50 (DU-145) was 0.3 mg/L and the GI50 (BXPC-3) was 5.3 mg/L. For the same compound, the IC50 (tubulin [1]) was over 40 µM, the GI50 (NCI 60-cell screen; NCI 60-cell screen, mean of panel) was 0.167 µM and the GI50 (NCI-H460) was 0.35 mg/L. For the same compound, the GI50 (P388) was 0.0336 mg/L, the “antifungal and/or antibacterial action” value [3] was “did not” and the GI50 (SF-295) was 0.23 mg/L. For the same compound, the solubility [4] was 100 mg/mL.

Work on COc1cc(C(=O)c2ccc(OC)c(OP(=O)([O-])[O-])c2OP(=O)([O-])[O-])cc(OC)c1OC.[Li+].[Li+].[Li+].[Li+] [Compound 6f, Lithium Hydroxyphenstatin Diphosphate] yielded a solubility [4] of 25 mg/mL.

COc1cc(C(=O)c2ccc(OC)c(OP(=O)([O-])[O-])c2OP(=O)([O-])[O-])cc(OC)c1OC.[Ca+2].[Ca+2] [Compound 6h, Calcium Hydroyphenstatin Diphosphate] gave a solubility [4] of under 1 mg/mL.

For COc1ccc(Br)c(O)c1O [Compound 7a, 1-Bromo-2,3dihydroxy-4methoxy-benzene], the “Minimum inhibitory Concentration (μg/disk)” value (Escherichia coli) was 50-100 μg/disk, the “Minimum inhibitory Concentration (μg/disk)” value (Neisseria gonorrhoeae) was under 6.25 μg/disk and the “Minimum inhibitory Concentration (μg/disk)” value (Staphylococcus aureus) was 25-50 μg/disk. The “Minimum inhibitory Concentration (μg/disk)” value [5] was 25-50 μg/disk and the melting point was 122.3 to 124.3 °C.

With COc1ccc(Br)c(O[Si](C)(C)C(C)(C)C)c1O[Si](C)(C)C(C)(C)C [Compound 7b, 1-Bromo-2,3-bis(tert-butyldimethylsilyl-oxy)-4-methoxy-benzene] the “inhibition of growth of the two fungal and eight bacterial strains tested” value [3] was “none of these compounds inhibited growth” and the melting point was 68.9 to 69.6 °C.

In the case of COc1cc(C(=O)N2CCOCC2)cc(OC)c1OC [Compound 8a, N-(3,4,5Trimethoxybenzoyl)-morpholine], the “inhibition of growth of the two fungal and eight bacterial strains tested” value [3] is reported as “none of these compounds inhibited growth”.

For COc1cccc(C=O)c1OC(C)=O [Compound 10, 2-Acetoxy-3methoxy-benzaldehyde], the “Minimum inhibitory Concentration (μg/disk)” value (Cryptococcus neoformans) was 25-50 μg/disk, the “Minimum inhibitory Concentration (μg/disk)” value [5] was 50-100 μg/disk and the melting point was 75.4 to 76.2 °C.

With COc1ccc(Br)c(C=O)c1OC(C)=O [Compound 11, 2-Acetoxy-3methoxy-6bromo-benzaldehyde] the “Minimum inhibitory Concentration (μg/disk)” value (Candida albicans) was 12.5-25 μg/disk, the “Minimum inhibitory Concentration (μg/disk)” value (Escherichia coli) was 50-100 μg/disk and the “Minimum inhibitory Concentration (μg/disk)” value (Cryptococcus neoformans) was 6.25-12.5 μg/disk. The “Minimum inhibitory Concentration (μg/disk)” value (Neisseria gonorrhoeae) was 25-50 μg/disk and the melting point was 121.6 to 123.4 °C.

In the case of COc1ccc(Br)c(C=O)c1O [Compound 12, 2-Hydroxy-3-methoxy-6bromo-benzaldehyde], the “Minimum inhibitory Concentration (μg/disk)” value (Candida albicans) is reported as 50-100 μg/disk, the “Minimum inhibitory Concentration (μg/disk)” value (Cryptococcus neoformans) is reported as 12.5-25 μg/disk and the “Minimum inhibitory Concentration (μg/disk)” value (Neisseria gonorrhoeae) is reported as 12.5-25 μg/disk.

For COc1cc(C(=O)c2ccc(OC)c(OC)c2OC)cc(OC)c1OC [Compound 13, 2′,3,3′,4,4′,5-Hexamethoxybenzophenone], the “inhibition of growth of the two fungal and eight bacterial strains tested” value [3] was “none of these compounds inhibited growth” and the melting point was 124.6 to 125.9 °C.

In the case of COc1cc(C(O)c2ccc(OC)c(OC)c2OC)cc(OC)c1OC (stereo not shown) [Compound 14, 2′,3,3′,4,4′,5Hexamethoxydiphenylcarbinol], the “inhibition of growth of the two fungal and eight bacterial strains tested” value [3] is reported as “none of these compounds inhibited growth”.

In the case of COCOc1c(OC)ccc(C(O)c2cc(OC)c(OC)c(OC)c2)c1OCOC (stereo not shown) [Compound 15, 2′,3′-Bis(methoxymethyloxy)-3,4,4′,5tetramethoxydiphenylcarbinol], the “inhibition of growth of the two fungal and eight bacterial strains tested” value [3] is reported as “none of these compounds inhibited growth” and the melting point is reported as 79.9 to 81.8 °C.
